# Patent US20070179143A1 (priority 2003, published 2007)
# How the values were obtained:
# SK-MEL-2 = experiment: Cytotoxicity test to cancer cell lines (SRB method), SK-MEL-2; assay type: cell-based; conditions: Homo sapiens, SK-MEL-2, 48 h, read-out: Cytotoxicity ED50 SK-MEL-2
# SK-OV-3 = experiment: Cytotoxicity test to cancer cell lines (SRB method), SK-OV-3; assay type: cell-based; conditions: Homo sapiens, SK-OV-3, 48 h, read-out: Cytotoxicity ED50 SK-OV-3
# A549 = experiment: Cytotoxicity test to cancer cell lines (SRB method), A549; conditions: Homo sapiens, A549, 48 h, read-out: Cytotoxicity ED50 A549
# Experimental: (§1) Cytotoxicity to A549 (Korea Research Institute of Chemical Technology), SK-OV-3 (Korea Research Institute of Chemical Technology), SK-MEL-2 (Korea Research Institute of Chemical Technology), HCT-15 (Korea Research Institute of Chemical Technology) and MCF7 (Korean Cell Line Bank, Seoul National University School of medicine) cells was measured by Sulforhodamin-B (SRB) method (1989, National Cancer Institute (NCI)) which was developed for the measurement of in vitro anticancer activity of a drug. Cells were separated using 0.25% trypsin-EDTA solution, leading to the preparation of a cell suspension by 5×10^318 2×10^4 cells/well. Then, the suspension was distributed into a 96 well plate by 100 μl/well, which was cultured in a 37° C., 5% CO2 incubator for 24 hours. Compounds prepared in examples of the present invention were used as a sample. Precisely, the compound was dissolved in dimethylsulfoxide and diluted with RPMI 1640 medium before being used as a sample. The final concentration of the sample used varied ranging 1 μM˜0.00001 μM. The medium was removed from the 96 well plate and then diluted sample solution was added by 100 μl/well, followed by further culture in a 37° C., 5% CO2 incubator for 48 hours. Tz (time zero) plate was collected from the point of adding the sample. Upon completing the culture, the medium was removed from each well along with Tz plate, then 10% trichloroacetic acid (TCA) was added by 100 μl/well. The plate was left at 4° C. for 1 hour to let cells be fixed on the floor of the plate. After cells were fixed completely, the plate was washed with water 5-6 times to remove the remaining trichloroacetic acid solution completely and moisture was completely dried at room temperature. 0.4% Sulforhodamine-B was dissolved in 1% acetic acid solution to prepare a staining solution. Cells were stained for 30 minutes with a dye added by 100 μl to each well of the completely dried plate. Then, the plate was washed with 1% acetic acid solution 5-6 times to remove sulforhodamine-B remained uncombined with cells. Then, the plate was dried at room temperature. 10 mM Tris solution was added by 100 μ/well thereto to dissolve the dye, and optical density (OD) was measured at 520 nm with a micro plate reader.
# (§2) ED50 (concentration that inhibits cancer cell growth 50%, 5.0% effective dose, nM/ml) of the sample to cancer cell was calculated as follows. OD value at the point of beginning the culture with the sample was determined as Tz (time zero) value. OD value of a well to be cultured without the sample was determined as a control value (C). OD value of a well pretreated with the sample was determined as experimental value (T). After calculating Tz, C and T, cytotoxicity of the sample was measured by the below <Mathematical Formula 1>. T≦Tz, (T−Tz)/(C−Tz)×100 T>Tz, (T−Tz)/Tz×10,0 <Mathematical Formula 1>
# (§3) ED50, the concentration that can inhibit cancer cell growth by 50%, was calculated by using a regression analysis of lotus program based on the degree of cytotoxicity obtained by the <Mathematical Formula 1>.
# MCF7 = experiment: Cytotoxicity test to cancer cell lines (SRB method), MCF7; conditions: read-out: Cytotoxicity ED50 MCF-7, MCF-7, 48 hours
# Experimental: as §1, §2, §3
# HCT-15 = experiment: Cytotoxicity test to cancer cell lines (SRB method), HCT-15; conditions: Homo sapiens, HCT-15, 48 h, read-out: Cytotoxicity ED50 HCT15
# Experimental: as §1, §2, §3
SMILES,EC50 (SK-MEL-2) [nM],EC50 (SK-OV-3) [nM],EC50 (A549) [nM],EC50 (MCF7) [nM],EC50 (HCT-15) [nM]
"COc1cc2c(c(OC)c1OC)-c1ccc(SC)c(=O)cc1[C@@H](NC(=O)c1cc(CO[N+](=O)[O-])cs1)CC2 [Example 21, 4-nitrooxymethyl-thiophene-2-carboxylic acid [(7S)-1,2,3-trimethoxy-10-methylsulfanyl-9-oxo-5,6,7,9-tetrahydro-benzo[a]heptalen-7-yl]-amide]",0.29,0.59,0.97,0.1,0.13
"COc1cc2c(c(OC)c1OC)-c1ccc(SC)c(=O)cc1[C@@H](N(C)C(=O)c1cc(F)cc(CO[N+](=O)[O-])c1)CC2 [Example 42, 3-fluoro-N-methyl-5-nitrooxymethyl-N-[(7S)-1,2,3-trimethoxy-10-methylsulfany-9-oxo-5,6,7,9-tetrahydro-benzo[a]heptalen-7-yl]-benzamide]",> 50,> 50,> 50,> 50,> 50
COc1cc2c(c(OC)c1OC)-c1ccc(SC)c(=O)cc1[C@@H](NC(=O)c1cccc(COC(=O)c3cccc(CO[N+](=O)[O-])c3)c1)CC2 [Example 33],2.9,6.6,3.8,,1
"COc1cc2c(c(OC)c1OC)-c1ccc(SC)c(=O)cc1[C@@H](NC(=O)c1cc(CO[N+](=O)[O-])ccc1F)CC2 [Example 17, 2-fluoro-5-nitrooxymethyl-N-[(7S)-1,2,3-trimethoxy-10-methylsulfanyl-9-oxo-5,6,7,9-tetrahydro-benzo[a]heptalen-7-yl]-benzamide]",0.17,0.19,0.21,0.08,0.19
"COc1cc2c(c(OC)c1OC)-c1ccc(SC)c(=O)cc1[C@@H](NC(=O)c1cc(F)cc(CON=O)c1)CC2 [Example 37, 3-fluoro-5-nitrosooxymethyl-N-[(7S)-1,2,3-trimethoxy-10-methylsulfanyl-9-oxo-5,6,7,9-tetrahydro-benzo[a]heptalen-7-yl]-benzamide]",9.4,38.8,> 50,10.3,7.5
"COc1cc2c(c(OC)c1OC)-c1ccc(SC)c(=O)cc1[C@@H](NC(=O)c1ccccc1OC(=O)CCCO[N+](=O)[O-])CC2 [Example 30, 4-nitrooxybutyric acid-2-[(7S)-1,2,3-trimethoxy-10-methylsulfanyl-9-oxo-5,6,7,9-tetrahydro-benzo[a]heptalen-7-yl-carbamoyl]-phenylester]",3.6,8.2,3.6,,5.2
"COc1cc2c(c(OC)c1OC)-c1ccc(SC)c(=O)cc1[C@@H](NC(=O)c1ccccc1OC(=O)c1cccc(CO[N+](=O)[O-])c1)CC2 [Example 29, 3-nitrooxymethyl-benzoic acid-2-[(7S)-1,2,3-trimethoxy-10-methylsulfanyl-9-oxo-5,6,7,9-tetrahydro-benzo[a]heptalen-7-yl-carbamoyl]-phenylester]",0.9,3,1.1,,0.8
"COc1cc2c(c(OC)c1OC)-c1ccc(SC)c(=O)cc1[C@@H](NC(=O)Cc1cccc(CO[N+](=O)[O-])c1)CC2 [Example 23, 2-(3-nitrooxymethyl-phenyl)-N-[(7S)-1,2,3-trimethoxy-10-methylsulfanyl-9-oxo-5,6,7,9-tetrahydro-benzo[a]heptalen-7-yl]-acetamide]",3.5,5.6,5.4,3.3,3.4
"COc1cc2c(c(OC)c1OC)-c1ccc(SC)c(=O)cc1[C@@H](NC(=O)c1cc(O)cc(CO[N+](=O)[O-])c1)CC2 [Example 18, 3-hydroxy-5-nitrooxymethyl-N-[(7S)-1,2,3-trimethoxy-10-methylsulfanyl-9-oxo-5,6,7,9-tetrahydro-benzo[a]heptalen-7-yl]-benzamide]",1,3.8,8.1,,5.3
"COc1cc2c(c(OC)c1OC)-c1ccc(SC)c(=O)cc1[C@@H](NC(=O)c1cccc(OC(=O)CCCO[N+](=O)[O-])c1)CC2 [Example 32, 4-nitrooxybutyric acid-3-[(7S)-1,2,3-trimethoxy-10-methylsulfanyl-9-oxo-5,6,7,9-tetrahydro-benzo[a]heptalen-7-yl-carbamoyl]-phenylester]",0.05,1,6.2,,0.08
"COc1cc2c(c(OC)c1OC)-c1ccc(SC)c(=O)cc1[C@@H](NC(=O)c1cccc(COC(=O)c3cccc(CO[N+](=O)[O-])c3)n1)CC2 [Example 27, 3-nitrooxymethyl-benzoicacid-6-[(7S) -1,2,3-trimethoxy-10-methylsulfanyl-9-oxo-5,6,7,9-tetrahydro-benzo[a]heptalen-7-yl-carbamoyl]-pyridine-2-yl-methylester]",7,16,5,,2
"CCOc1cc2c(c(OC)c1OC)-c1ccc(SC)c(=O)cc1[C@@H](NC(=O)c1cccc(CO[N+](=O)[O-])c1)CC2 [Example 4, N-[(7S)-3-ethoxy-1,2-dimethoxy-10-methylsulfanyl-9-oxo-5,6,7,9-tetrahydro-benzo[a]heptalen-7-yl]-3-nitrooxymethyl-benzamide]",0.01,0.01,0.01,0.01,0.03
"COc1cc2c(c(OC)c1OC)-c1ccc(SC)c(=O)cc1[C@@H](NC(=O)c1ccc(COC(=O)c3cccc(O[N+](=O)[O-])c3)nc1)CC2 [Example 25, 3-nitrooxy-benzoic acid-5-[(7S)-1,2,3-trimethoxy-10-methylsulfanyl-9-oxo-5,6,7,9-tetrahydro-benzo[a]heptalen-7-yl-carbamoyl]-pyridine-2-yl-methylester]",14,5.4,8.8,,15
"COc1cc2c(c(OC)c1OC)-c1ccc(SC)c(=O)cc1[C@@H](NC(=O)c1cccc(OC(=O)c3cccc(CO[N+](=O)[O-])c3)c1)CC2 [Example 31, 3-nitrooxymethyl-benzoic acid-3-[(7S)-1,2,3-trimethoxy-10-methylsulfanyl-9-oxo-5,6,7,9-tetrahydro-benzo[a]heptalen-7-yl-carbamoyl]-phenylester]",0.9,3,1.1,,0.8
"COc1cc2c(c(OC)c1OC)-c1ccc(SC)c(=O)cc1[C@@H](NC(=O)c1ccc(CO[N+](=O)[O-])nc1)CC2 [Example 1, 6-nitrooxymethyl-N-[(7S)-1,2,3-trimethoxy-10-methylsulfanyl-9-oxo-5,6,7,9-tetrahydro-benzo[a]heptalen-7-yl]-nicotineamide]",0.4,1,1.8,,0.6
"COc1cc2c(c(OC)c1OC)-c1ccc(SC)c(=O)cc1[C@@H](NC(=O)c1cccc(CO[N+](=O)[O-])n1)CC2 [Example 5, 6-nitrooxymethyl-pyridine-2-carboxylic acid-[(7S)-1,2,3-trimethoxy-10-methylsulfanyl-9-oxo-5,6,7,9-tetrahydro-benzo[a]heptalen-7-yl]-amide]",3.1,1,1,,4.4
"COc1cc2c(c(OC)c1OC)-c1ccc(SC)c(=O)cc1[C@@H](NC(=O)c1cccc(CON=O)c1)CC2 [Example 36, 3-nitrosooxymethyl-N-[(7S)-1,2,3-trimethoxy-10-methylsulfanyl-9-oxo-5,6,7,9-tetrahydro-benzo[a]heptalen-7-yl]-benzamide]",0.1,1.1,2.9,,0.7
"COc1cc2c(c(OC)c1OC)-c1ccc(SC)c(=O)cc1[C@@H](NC(=O)c1ccc(F)c(CO[N+](=O)[O-])c1)CC2 [Example 16, 4-fluoro-3-nitrooxymethyl-N-[(7S)-1,2,3-trimethoxy-10-methylsulfanyl-9-oxo-5,6,7,9-tetrahydro-benzo[a]heptalen-7-yl]-benzamide]",1,1,1.6,,1
"COc1cc2c(c(OC)c1OC)-c1ccc(SC)c(=O)cc1[C@@H](NC(=O)c1cccc(CSN=O)c1)CC2 [Example 38, 3-nitrosothiomethyl-N-[(7S)-1,2,3-trimethoxy-10-methylsulfanyl-9-oxo-5,6,7,9-tetrahydro-benzo[a]heptalen-7-yl]-benzamide]",3.3,4.1,2.4,,3
"COc1cc2c(c(OC)c1OC)-c1ccc(SC)c(=O)cc1[C@@H](NC(=O)c1cccc(COC(=O)CCCO[N+](=O)[O-])n1)CC2 [Example 28, 4-nitrooxybutyric acid-6-[(7S)-1,2,3-trimethoxy-10-methylsulfanyl-9-oxo-5,6,7,9-tetrahydro-benzo[a]heptalen-7-yl-carbamoyl]-pyridine-2-yl-methylester]",4,15,6,,3
"COc1cc2c(c(OC)c1OC)-c1ccc(SC)c(=O)cc1[C@@H](NC(=O)c1ccc(COC(=O)CCCO[N+](=O)[O-])nc1)CC2 [Example 26, 4-nitrooxybutyric acid-5-[(7S)-1,2,3-trimethoxy-10-methylsulfanyl-9-oxo-5,6,7,9-tetrahydro-benzo[a]heptalen-7-yl-carbamoyl]-pyridine-2-yl-methylester]",47,> 50,21,,> 50
